Results as given in US20230062119A1, “USE OF BIOMARKERS IN IDENTIFYING PATIENTS THAT WILL BE RESPONSIVE TO TREATMENT WITH A PRMT5 INHIBITOR” (Merck Sharp & Dohme LLC, priority 2019, published 2023).
Like-named read-outs stand apart in the source and are kept apart here.

Biological target: T1, Full-length (FL)-PRMT5-MEP50 enzyme complex (Homo sapiens, UniProt O14744)
T1 construct: Full-length (FL)-PRMT5-MEP50 enzyme complex (recombinant proteins from baculovirus-transfected Sf21 cells: FL-PRMT5; MW=73837 kDa and FL-MEP50; MW=38614); made in house; host or cells: baculovirus-transfected Sf21 insect cells
T1 sequence (O14744 whole entry): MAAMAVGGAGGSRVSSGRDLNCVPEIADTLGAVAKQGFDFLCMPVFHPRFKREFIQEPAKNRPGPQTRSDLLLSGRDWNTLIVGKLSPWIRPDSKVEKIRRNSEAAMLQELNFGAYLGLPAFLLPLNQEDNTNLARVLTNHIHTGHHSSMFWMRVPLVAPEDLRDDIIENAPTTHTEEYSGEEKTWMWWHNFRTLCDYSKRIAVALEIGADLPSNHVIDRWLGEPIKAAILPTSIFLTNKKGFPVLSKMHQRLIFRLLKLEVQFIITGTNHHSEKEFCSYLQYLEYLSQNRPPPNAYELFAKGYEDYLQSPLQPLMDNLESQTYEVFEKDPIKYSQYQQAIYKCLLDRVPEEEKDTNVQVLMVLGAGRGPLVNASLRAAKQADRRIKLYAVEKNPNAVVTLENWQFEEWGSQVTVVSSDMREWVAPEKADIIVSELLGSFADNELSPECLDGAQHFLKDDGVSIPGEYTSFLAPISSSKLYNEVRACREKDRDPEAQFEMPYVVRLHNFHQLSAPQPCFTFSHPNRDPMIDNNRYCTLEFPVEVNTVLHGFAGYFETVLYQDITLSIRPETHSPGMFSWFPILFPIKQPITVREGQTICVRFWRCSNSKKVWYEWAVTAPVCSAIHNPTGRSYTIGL
T1 sequence (Q9BQA1 whole entry partner): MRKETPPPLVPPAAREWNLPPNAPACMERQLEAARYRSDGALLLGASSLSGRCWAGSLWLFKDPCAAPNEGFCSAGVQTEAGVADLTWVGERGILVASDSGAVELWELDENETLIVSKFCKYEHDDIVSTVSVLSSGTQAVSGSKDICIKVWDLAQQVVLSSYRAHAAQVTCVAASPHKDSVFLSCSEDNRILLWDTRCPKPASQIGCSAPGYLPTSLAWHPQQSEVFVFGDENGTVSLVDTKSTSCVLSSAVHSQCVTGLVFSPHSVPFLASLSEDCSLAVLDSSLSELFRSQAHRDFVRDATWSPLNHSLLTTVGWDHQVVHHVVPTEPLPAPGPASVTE
Assay: PRMT5-MEP50 Enzyme Methylation Assay
Type: biochemical
Details: 1.0 nM PRMT5-MEP50, 75 nM biotinylated peptide, 15 μM SAM
Summary of the method: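 Compound was pre-incubated 60 min at 37°C with 1.0 nM enzyme and 15 μM SAM (final) in 50 mM Bicine pH 8.0, then 75 nM biotinylated H4R3(Me1) peptide was added and reacted 150 min; twenty-point 1:2 titration from 100000 nM, 1% DMSO. Formic acid quench; SAMDI mass spectrometry measured Me1-to-Me2 conversion, EC50 by 4- or 7-parameter regression.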

[1] = one EC50: 4 parameters single site sigmoidal model, EC50 1: first value of 7 parameters biphasic model, read-out: Enzyme Methylation Assay (EC50 or EC50 1)
[2] = second EC50 of 7 parameters biphasic model, read-out: Enzyme Methylation Assay (EC50 2)

Compound | EC50 [1] [nM] | EC50 [2] [nM]
Cc1ncnc2c1ccn2[C@@H]1O[C@@H]2[C@@H](Oc3ccc4cc(C(F)F)c(N)nc4c3)CC[C@]2(O)[C@H]1O [Example 115, (2R,3R,3aS,6S,6aR)-6-((2-amino-3-(difluoromethyl)quinolin-7-yl)oxy)-2-(4-methyl-7H-pyrrolo[2,3-d]pyrimidin-7-yl)hexahydro-3aH-cyclopenta[b]furan-3,3a-diol] | 0.4 | 255
C[C@@]1(CCc2ccc3cc(F)c(N)nc3c2)C[C@@H](n2ccc3c(N)ncnc32)[C@H](O)[C@@H]1O [Example 116, (1S,2R,3R,5R)-3-(2-(2-amino-3-fluoroquinolin-7-yl)ethyl)-5-(4-amino-7H-pyrrolo[2,3-d]pyrimidin-7-yl)-3-methylcyclopentane-1,2-diol] | 2.4 | 661
C[C@]1(CCc2ccc3cc(Br)c(N)nc3c2)C[C@@H](n2ccc3c(N)ncnc32)[C@H](O)[C@]1(C)O [Example 117, (1R,2S,3R,5S)-5-(2-(2-amino-3-bromoquinolin-7-yl)ethyl)-3-(4-amino-7H-pyrrolo[2,3-d]pyrimidin-7-yl)-1,5-dimethylcyclopentane-1,2-diol] | 1 | –
C[C@]1(O)[C@@H](O)[C@H](n2ccc3c(N)ncnc32)C[C@]1(O)CCc1ccc2cc(Br)c(N)nc2c1 [Example 118, (1R,2S,3S,4R)-1-(2-(2-amino-3-bromoquinolin-7-yl)ethyl)-4-(4-amino-7H-pyrrolo[2,3-d]pyrimidin-7-yl)-2-methylcyclopentane-1,2,3-triol] | 3.2 | 1590
Nc1nc2cc(O[C@H]3CC[C@@]4(O)[C@@H]3C[C@@H](n3ccc5c(N)ncnc53)[C@@H]4O)ccc2cc1Br [Example 119, (1S,2R,3aR,4S,6aR)-4-((2-amino-3-bromoquinolin-7-yl)oxy)-2-(4-amino-7H-pyrrolo[2,3-d]pyrimidin-7-yl)hexahydropentalene-1,6a(1H)-diol 2,2,2-trifluoroacetate] | 1 | 116
C[C@]12O[C@@H](n3ccc4c(N)ncnc43)[C@H](O)[C@@]1(O)CC[C@H]2Cc1ccc2cc(F)c(N)nc2c1 [Example 121, (2R,3R,3aS,6S,6aR)-6-((2-amino-3-fluoroquinolin-7-yl)methyl)-2-(4-amino-7H-pyrrolo[2,3-d]pyrimidin-7-yl)-6a-methylhexahydro-3aH-cyclopenta[b]furan-3,3a-diol] | 0.4 | –
C[C@]1(CCc2ccc3cc4c(nc3c2)NCC4)C[C@@H](n2ccc3c(N)ncnc32)[C@H](O)[C@@H]1O [Example 126, (1S,2R,3S,5R)-5-(4-amino-7H-pyrrolo[2,3-d]pyrimidin-7-yl)-3-(2-(2,3-dihydro-1H-pyrrolo[2,3-b]quinolin-7-yl)ethyl)-3-methylcyclopentane-1,2-diol] | 0.6 | –
Nc1nc2cc(O[C@H]3CC[C@@]4(O)[C@@H]3O[C@@H](n3ccc5c(N)ncnc53)[C@@H]4O)ccc2cc1C(F)F [Example 128, (2R,3R,3aS,6S,6aR)-6-((2-amino-3-(difluoromethyl)quinolin-7-yl)oxy)-2-(4-amino-7H-pyrrolo[2,3-d]pyrimidin-7-yl)hexahydro-3aH-cyclopenta[b]furan-3,3a-diol] | 0.7 | –
Cc1ncnc2c1ccn2[C@@H]1O[C@@H]2[C@H](Oc3ccc4cc(Br)c(N)nc4c3)CC[C@]2(O)[C@H]1O [Example 129, (2R,3R,3aS,6R,6aR)-6-((2-amino-3-bromoquinolin-7-yl)oxy)-2-(4-methyl-7H-pyrrolo[2,3-d]pyrimidin-7-yl)hexahydro-3aH-cyclopenta[b]furan-3,3a-diol] | 33.9 | 31600
Nc1ncc2c(F)cn([C@@H]3O[C@@H]4[C@@H](Oc5ccc6cc(Br)c(N)nc6c5)CC[C@]4(O)[C@H]3O)c2n1 [Example 130, (2R,3R,3aS,6S,6aR)-6-((2-amino-3-bromoquinolin-7-yl)oxy)-2-(2-amino-5-fluoro-7H-pyrrolo[2,3-d]pyrimidin-7-yl)hexahydro-3aH-cyclopenta[b]furan-3,3a-diol] | 0.6 | –
Nc1nc2cc(CC3OC[C@@]4(O)C3C[C@@H](n3ccc5c(N)ncnc53)[C@@H]4O)ccc2cc1Br (stereo partly drawn) [Example 132, (3aS,4S,5R)-1-((2-amino-3-bromoquinolin-7-yl)methyl)-5-(4-amino-7H-pyrrolo[2,3-d]pyrimidin-7-yl)tetrahydro-1H-cyclopenta[c]furan-3a,4(3H)-diol] | 3.9 | 3310

Second part, the molecule after the results:

EC50 [1] [nM] | EC50 [2] [nM] | Compound
0.6 | – | Cc1ncnc2c1ccn2[C@@H]1O[C@@H]2[C@@H](Nc3ccc4cc(F)c(N)nc4c3)CC[C@]2(O)[C@H]1O [Example 120, (2R,3R,3aS,6S,6aR)-6-((2-amino-3-fluoroquinolin-7-yl)amino)-2-(4-methyl-7H-pyrrolo[2,3-d]pyrimidin-7-yl)hexahydro-3aH-cyclopenta[b]furan-3,3a-diol]
0.6 | – | Cc1ncnc2c1ccn2[C@@H]1O[C@@H]2[C@H](Cc3ccc4cc(Cl)c(N)nc4c3)CC[C@]2(O)[C@H]1O [Example 122, (2R,3R,3aS,6S,6aR)-6-((2-amino-3-chloroquinolin-7-yl)methyl)-2-(4-methyl-7H-pyrrolo[2,3-d]pyrimidin-7-yl)hexahydro-3aH-cyclopenta[b]furan-3,3a-diol]
1 | – | Cc1ncnc2c1ccn2[C@@H]1O[C@@H]2[C@H](Cc3ccc4cc(F)c(N)nc4c3)CC[C@]2(O)[C@H]1O [Example 123, (2R,3R,3aS,6S,6aR)-6-((2-amino-3-fluoroquinolin-7-yl)methyl)-2-(4-methyl-7H-pyrrolo[2,3-d]pyrimidin-7-yl)hexahydro-3aH-cyclopenta[b]furan-3,3a-diol]
0.3 | – | Nc1nc2cc(C[C@@H]3CC[C@@]4(O)[C@@H]3O[C@@H](n3ccc5c(N)ncnc53)[C@@H]4O)ccc2cc1F [Example 124, (2R,3R,3aS,6S,6aR)-6-((2-amino-3-fluoroquinolin-7-yl)methyl)-2-(4-amino-7H-pyrrolo[2,3-d]pyrimidin-7-yl)hexahydro-3aH-cyclopenta[b]furan-3,3a-diol]
0.8 | – | Cc1cc2ccc(C[C@@H]3CC[C@@]4(O)[C@@H]3O[C@@H](n3ccc5c(N)ncnc53)[C@@H]4O)cc2nc1N [Example 125, (2R,3R,3aS,6S,6aR)-6-((2-amino-3-methylquinolin-7-yl)methyl)-2-(4-amino-7H-pyrrolo[2,3-d]pyrimidin-7-yl)hexahydro-3aH-cyclopenta[b]furan-3,3a-diol]
0.7 | – | Cc1nc(N)nc2c1ccn2[C@@H]1O[C@@H]2[C@H](Cc3ccc4cc(Br)c(N)nc4c3)CC[C@]2(O)[C@H]1O [Example 127, (2R,3R,3aS,6S,6aR)-6-((2-amino-3-bromoquinolin-7-yl)methyl)-2-(2-amino-4-methyl-7H-pyrrolo[2,3-d]pyrimidin-7-yl)hexahydro-3aH-cyclopenta[b]furan-3,3a-diol]
0.6 | – | Cc1ncnc2c1ccn2[C@@H]1O[C@@H]2[C@@H](Cc3ccc4cc(Cl)c(N)nc4c3)CC[C@]2(O)[C@H]1O [Example 131, (2R,3R,3aS,6R,6aR)-6-((2-amino-3-chloroquinolin-7-yl)methyl)-2-(4-methyl-7H-pyrrolo[2,3-d]pyrimidin-7-yl)hexahydro-3aH-cyclopenta[b]furan-3,3a-diol]
0.8 | – | Cc1ncnc2c1ccn2[C@@H]1O[C@@H]2[C@H](Cc3ccc4cc(Br)c(N)nc4c3)OC[C@]2(O)[C@H]1O [Example 133, (2R,3R,3aS,6S,6aR)-6-((2-amino-3-bromoquinolin-7-yl)methyl)-2-(4-methyl-7H-pyrrolo[2,3-d]pyrimidin-7-yl)tetrahydrofuro[3,4-b]furan-3,3a(4H)-diol]
